Assay results taken from patent US20180155344A1, “TRICYCLIC PIPERIDINE COMPOUNDS” (ACTELION PHARMACEUTICALS LTD, priority 2015, published 2018).

Target: T1, human TPH1 (Homo sapiens, UniProt P17752)
T1 sequence (P17752 1-444): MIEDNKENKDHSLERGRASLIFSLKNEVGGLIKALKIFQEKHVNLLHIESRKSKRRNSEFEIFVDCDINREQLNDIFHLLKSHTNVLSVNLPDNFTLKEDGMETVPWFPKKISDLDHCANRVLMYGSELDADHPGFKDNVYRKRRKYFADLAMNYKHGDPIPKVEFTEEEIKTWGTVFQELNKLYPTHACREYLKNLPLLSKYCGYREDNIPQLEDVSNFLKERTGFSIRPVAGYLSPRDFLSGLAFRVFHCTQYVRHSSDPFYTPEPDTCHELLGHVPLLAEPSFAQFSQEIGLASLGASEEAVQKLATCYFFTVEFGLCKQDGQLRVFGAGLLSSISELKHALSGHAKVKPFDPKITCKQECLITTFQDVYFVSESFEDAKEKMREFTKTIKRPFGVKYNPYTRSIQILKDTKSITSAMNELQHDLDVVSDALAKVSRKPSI
Assay: biochemical
Excerpt: Biochemical In Vitro Assay Using Fluorescence Readout
To generate the enzyme, full length human TPH1 is cloned into the plasmid pET20b(+) (Novagen) and expressed in E. coli. The bacterial cells are ruptured by sonication on ice and the lysate is cleared by centrifugation. The resulting protein in the pellet is re-extracted and TPH1 is purified from the obtained lysate by affinity chromatography using a pterin cosubstrate analog immobilized to the resin of the column. The protein is further purified by size exclusion chromatography to remove protein aggregates. The activity of TPH1 is determined by using a fluorescence assay. The enzyme activity assay is carried out at 15° C. with atmosphere oxygen for the duration of 60 minutes in a volume of 64 μl. The reaction is carried out in a 0.1 M Tris-HCl buffer, adjusted to pH 7.6, containing 1 mM DTT, 0.2 mg/mL catalase, 100 μM (±)-6-methyl-5,6,7,8-tetrahydropterine dihydrochloride, 40 μM L-tryptophan, and 40-80 nM of TPH1. The reaction is started by bringing together L-tryptophan with all the other reaction substituents and stopped by quenching with perchloric acid (HClO4). The amount of 5-hydroxy-L-tryptophan produced during the enzymatic reaction is determined by fluorescence readout. Fluorescence, as determined at 540 nm when excited at 300 nm wavelength, increases proportionally to the 5-hydroxy-L-tryptophan formed. Compounds are prepared as 10 mM stock solution in DMSO, then diluted in 384-well plates using DMSO followed by a transfer of the dilutions into the assay plate. Fluorescence is measured for each well and the fluorescence at 540 nm wavelength is compared to the fluorescence of the vehicle in place of compound. […] The calculated IC50 values may fluctuate depending on the daily biochemical assay performance. Fluctuations of this kind are known to those skilled in the art.

Row | SMILES | IC50 [nM]
1 | CCc1ncccc1OCC(=O)N1CCc2nc3ccccn3c2C1c1ccc(Cl)nc1F (centres unmarked) [Example 1.11.2, 1-(1-(6-chloro-2-fluoropyridin-3-yl)-3,4-dihydroimidazo[1,2-a:5,4-c′]dipyridin-2(1H)-yl)-2-((2-ethylpyridin-3-yl)oxy)ethan-1-one] | 123
2 | CCc1nc(C)ccc1OCC(=O)N1CCc2nc3ccccn3c2C1c1ccc(Cl)nc1F (centres unmarked) [Example 1.11.3, 1-(1-(6-chloro-2-fluoropyridin-3-yl)-3,4-dihydroimidazo[1,2-a:5,4-c′]dipyridin-2(1H)-yl)-2-((2-ethyl-6-methylpyridin-3-yl)oxy)ethan-1-one] | 241
3 | O=C(COc1ccc(N2CCOCC2)nc1Cl)N1CCc2nc3ccccn3c2C1c1ncc(C2CC2)cc1F (centres unmarked) [Example 1.12.1, 2-((2-chloro-6-morpholinopyridin-3-yl)oxy)-1-(1-(5-cyclopropyl-3-fluoropyridin-2-yl)-3,4-dihydroimidazo[1,2-a:5,4-c′]dipyridin-2(1H)-yl)ethan-1-one] | 8
4 | O=C(COc1ccc(N2CCOCC2)cc1Cl)N1CCc2nc3ccccn3c2C1c1ncc(C2CC2)cc1F (centres unmarked) [Example 1.12.2, 2-(2-chloro-4-morpholinophenoxy)-1-(1-(5-cyclopropyl-3-fluoropyridin-2-yl)-3,4-dihydroimidazo[1,2-a:5,4-c′]dipyridin-2(1H)-yl)ethan-1-one] | 23
5 | CCc1nc(C)ccc1OCC(=O)N1CCc2nc3ccccn3c2C1c1ncc(C2CC2)cc1F (centres unmarked) [Example 1.12.3, 1-(1-(5-cyclopropyl-3-fluoropyridin-2-yl)-3,4-dihydroimidazo[1,2-a:5,4-c′]dipyridin-2(1H)-yl)-2-((2-ethyl-6-methylpyridin-3-yl)oxy)ethan-1-one] | 146
6 | O=C(COc1ccc(N2CCOCC2)nc1Cl)N1CCc2nc3ccccn3c2C1c1ccc(C2CC2)nc1F (centres unmarked) [Example 1.13.1, 2-((2-chloro-6-morpholinopyridin-3-yl)oxy)-1-(1-(6-cyclopropyl-2-fluoropyridin-3-yl)-3,4-dihydroimidazo[1,2-a:5,4-c′]dipyridin-2(1H)-yl)ethan-1-one] | 8
7 | O=C(COc1ccc(N2CCOCC2)nc1Cl)N1CCc2nc3ccccn3c2C1c1ncc(Cl)cc1F (centres unmarked) [Example 1.14.1, 1-(1-(5-chloro-3-fluoropyridin-2-yl)-3,4-dihydroimidazo[1,2-a:5,4-c′]dipyridin-2(1H)-yl)-2-((2-chloro-6-morpholinopyridin-3-yl)oxy)ethan-1-one] | 4
8 | COC(=O)c1ccc(OCC(=O)N2CCc3nc4ccccn4c3[C@@H]2c2ncc(Cl)cc2F)c(Cl)n1 [Example 1.14.2, methyl (R)-6-chloro-5-(2-(1-(5-chloro-3-fluoropyridin-2-yl)-3,4-dihydroimidazo[1,2-a:5,4-c′]dipyridin-2(1H)-yl)-2-oxoethoxy)picolinate] | 222
9 | COC(=O)c1ccc(C2c3c(nc4ccccn34)CCN2C(=O)COc2ccc(NS(C)(=O)=O)nc2Cl)c(F)c1 (centres unmarked) [Example 1.15.1, methyl-4-(2-(2-((2-chloro-6-(methylsulfonamido)pyridin-3-yl)oxy)acetyl)-1,2,3,4-tetrahydroimidazo[1,2-a:5,4-c′]dipyridin-1-yl)-3-fluorobenzoate] | 71
10 | COC(=O)c1ccc(C2c3c(nc4ccccn34)CCN2C(=O)COc2ccc(C(=O)NC3CC3)nc2Cl)c(F)c1 (centres unmarked) [Example 1.15.2, methyl-4-(2-(2-((2-chloro-6-(cyclopropylcarbamoyl)pyridin-3-yl)oxy)acetyl)-1,2,3,4-tetrahydroimidazo[1,2-a:5,4-c′]dipyridin-1-yl)-3-fluorobenzoate] | 49
11 | CC(C)(O)c1ccc(C2c3c(nc4ccccn34)CCN2C(=O)COc2ccc(C(=O)NC3CC3)nc2Cl)c(F)c1 (centres unmarked) [Example 1.16.1, 6-chloro-N-cyclopropyl-5-(2-(1-(2-fluoro-4-(2-hydroxypropan-2-yl)phenyl)-3,4-dihydroimidazo[1,2-a:5,4-c′]dipyridin-2(1H)-yl)-2-oxoethoxy)picolinamide] | 244
12 | CC(C)(O)c1ccc(C2c3c(nc4ccccn34)CCN2C(=O)COc2ccc(NS(C)(=O)=O)nc2Cl)c(F)c1 (centres unmarked) [Example 1.16.2, N-(6-chloro-5-(2-(1-(2-fluoro-4-(2-hydroxypropan-2-yl)phenyl)-3,4-dihydroimidazo[1,2-a:5,4-c′]dipyridin-2(1H)-yl)-2-oxoethoxy)pyridin-2-yl)methanesulfonamide] | 546
13 | COC(C)(C)c1ccc(C2c3c(nc4ccccn34)CCN2C(=O)COc2ccc(C(=O)NC3CC3)nc2Cl)c(F)c1 (centres unmarked) [Example 1.17.1, 6-chloro-N-cyclopropyl-5-(2-(1-(2-fluoro-4-(2-methoxypropan-2-yl)phenyl)-3,4-dihydroimidazo[1,2-a:5,4-c′]dipyridin-2(1H)-yl)-2-oxoethoxy)picolinamide] | 140
14 | COC(C)(C)c1ccc(C2c3c(nc4ccccn34)CCN2C(=O)COc2ccc(NS(C)(=O)=O)nc2Cl)c(F)c1 (centres unmarked) [Example 1.17.2, N-(6-chloro-5-(2-(1-(2-fluoro-4-(2-methoxypropan-2-yl)phenyl)-3,4-dihydroimidazo[1,2-a:5,4-c′]pyridin-2(1H)-yl)-2-oxoethoxy)pyridin-2-yl)methanesulfonamide] | 591
15 | COCc1ccc(C2c3c(nc4ccccn34)CCN2C(=O)COc2ccc(C(=O)NC3CC3)nc2Cl)c(F)c1 (centres unmarked) [Example 1.18.1, 6-chloro-N-cyclopropyl-5-(2-(1-(2-fluoro-4-(methoxymethyl)phenyl)-3,4-dihydroimidazo[1,2-a:5,4-c′]dipyridin-2(1H)-yl)-2-oxoethoxy)picolinamide] | 38
16 | COCc1ccc(C2c3c(nc4ccccn34)CCN2C(=O)COc2ccc(NS(C)(=O)=O)nc2Cl)c(F)c1 (centres unmarked) [Example 1.18.2, N-(6-chloro-5-(2-(1-(2-fluoro-4-(methoxymethyl)phenyl)-3,4-dihydroimidazo[1,2-a:5,4-c′]dipyridin-2(1H)-yl)-2-oxoethoxy)pyridin-2-yl)methanesulfonamide] | 40
17 | CS(=O)(=O)Nc1ccc(OCC(=O)N2CCc3nc4ccccn4c3C2c2ccc(OC(F)(F)F)cc2F)c(Cl)n1 (centres unmarked) [Example 1.19.1, N-(6-chloro-5-(2-(1-(2-fluoro-4-(trifluoromethoxy)phenyl)-3,4-dihydroimidazo[1,2-a:5,4-c′]dipyridin-2(1H)-yl)-2-oxoethoxy)pyridin-2-yl)methanesulfonamide0.71] | 113
18 | O=C(NC1CC1)c1ccc(OCC(=O)N2CCc3nc4ccccn4c3C2c2ccc(OC(F)(F)F)cc2F)c(Cl)n1 (centres unmarked) [Example 1.19.2, 6-chloro-N-cyclopropyl-5-(2-(1-(2-fluoro-4-(trifluoromethoxy)phenyl)-3,4-dihydroimidazo[1,2-a:5,4-c′]dipyridin-2(1H)-yl)-2-oxoethoxy)picolinamide] | 18
19 | CS(=O)(=O)Nc1ccc(OCC(=O)N2CCc3nc4ccccn4c3C2c2ccc(C#N)cc2F)c(Cl)n1 (centres unmarked) [Example 1.20.1, N-(6-chloro-5-(2-(1-(4-cyano-2-fluorophenyl)-3,4-dihydroimidazo[1,2-a:5,4-c′]dipyridin-2(1H)-yl)-2-oxoethoxy)pyridin-2-yl)methanesulfonamide] | 98
20 | N#Cc1ccc(C2c3c(nc4ccccn34)CCN2C(=O)COc2ccc(C(=O)NC3CC3)nc2Cl)c(F)c1 (centres unmarked) [Example 1.20.2, 6-chloro-5-(2-(1-(4-cyano-2-fluorophenyl)-3,4-dihydroimidazo[1,2-a:5,4-c′]dipyridin-2(1H)-yl)-2-oxoethoxy)-N-cyclopropylpicolinamide] | 31
